Test results from patent US10383806B2, “Compositions including sesamin, methods of making and using the same in skin anti-aging and skin lightening applications” (Access Business Group International LLC, priority 2015, dated 2019).

Experiments:
Format in all cases: cell-based
[1] = system: antioxidant response elements; assay: Anti-oxidant response element (ARE) luciferase reporter assay in stable HepG2 cells; settings: 48 hours, FIG. 4
Text: Yet other embodiments relate to a method of decreasing a skin anti-inflammatory response comprising applying to the skin a composition in a cosmetically effective amount sufficient to decrease the skin anti-inflammatory response, wherein the composition comprises an amount of sesamin, individually or in combination with at least one other plant ingredient or plant extract from Pistacia (e.g., Pistacia lentiscus), Leontopodium (e.g., Leontopodium alpinium), Spirulina (e.g., Spirulina platensis), Oroxylum (e.g., Oroxylum indicum), Schizandra (e.g., Schizandra chinesis), Moringa (e.g., Moringa pterygosperma), Houttuynia (e.g., Houttuynia cordata), Isodon (e.g., Isodon japonicus), and Saxifraga (e.g., Saxifraga stolonifera), or mixtures thereof, and at least one pharmaceutically or cosmetically acceptable vehicle. […] Use of compositions that are capable of decreasing a skin anti-inflammatory response in the skin may result in improvement of the appearance of skin or at least one sign of aging in skin. Sesamin complex was dissolved in 70% DMSO and finally diluted […] in MEM containing Myrosinase (0.625 U/mL) and Ascorbic Acid (350 uM) and the final concentration of DMSO was 0.14%. […] The cells were grown in minimum essential media (MEM) with 10% fetal bovine serum and 150 ug/mL of hygromycin in a humidified atmosphere containing 5% CO2 at 37 C. For the assay, the cells were seeded at a density of 31,250 cells per well in a 96-well, white-walled, collagen coated plate. The following day, the media was removed and fresh growth media was added. After 24 hours, the cells were treated with test compounds for 48 hours (100 ug/mL, 50 ug/mL, 25 ug/mL, 12.5 ug/mL, and […]), lysed and the amount of luciferase produced was measured using a luciferase activity assay. Data were captured as relative luminescence units (RLUs) using an M5 Spectrophotometer (Molecular Devices, Inc).

[2] = target: T1, Gal4-PPARγ-LBD fusion protein (Homo sapiens, UniProt P37231); assay: PPARγ activation luciferase reporter assay (Gal4-PPARγ-LBD, CHO-K1 cells); settings: 18-24 hours, FIG. 6, n=2
T1 construct: The PPARγ-LBD (residues 203-477) was PCR amplified from human MGC: 5041; expressed in transfected cells
T1 sequence (P37231 203-477 isoform P37231-2): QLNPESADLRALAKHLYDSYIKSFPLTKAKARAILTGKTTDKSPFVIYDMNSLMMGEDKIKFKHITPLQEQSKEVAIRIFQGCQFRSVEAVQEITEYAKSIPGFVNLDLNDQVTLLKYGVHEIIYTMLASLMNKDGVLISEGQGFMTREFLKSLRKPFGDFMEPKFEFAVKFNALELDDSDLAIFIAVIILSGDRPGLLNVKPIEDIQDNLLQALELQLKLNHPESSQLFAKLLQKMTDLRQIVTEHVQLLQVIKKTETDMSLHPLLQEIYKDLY
Experimental: Troglitazone (positive control) was purchased from Sigma Corp. Sesamin sample was purchased from Virun Chemicals and a stock solution at a concentration of 100 mg/mL was prepared in 70% Dimethyl Sulfoxide (DMSO) and diluted to the indicated concentrations as shown in the figure. The final concentration of DMSO was maintained at 0.05% or lower. Stock solutions of troglitzone and sesamin samples were solubilized and diluted in DMSO prior to dilution in Dubelco's minimum essential media (DMEM) containing 0.5% Bovine serum Albumin (BSA) for testing. To study the activation of PPARγ in a luciferase reporter assay, a Gal4-PPARγ-ligand-binding domain (LBD) vector was created in a modified pF[…] (BIND) vector (Promega Inc). The PPARγ-LBD (residues 203-477) was PCR amplified from human MGC: 5041 (pSPORT6; Open Biosystems Inc.) and ligated into the pBIND3 vector forming a Gal4-PPARγ-LBD fusion protein. […] Luciferase was quantified using an activity assay from Biotium Inc. Briefly, at time of analysis, cells in white-walled 96-well plates were rinsed once using 50 μL of DPBS, then lysed with 20 μL of 1× passive lysis buffer. […] Reconstituted, room temperature D-luciferin was added (100 μL per well) and light emission was immediately read using an M-5 spectrophotometer (Molecular Devices, Inc.).

Melan-a cells = assay: Melanin inhibition assay in Melan-a cells; settings: 4 days, concentrations of FIG. 5
Experimental: Melan-a cells seeded at a density of 5×10^4 cells per well were grown in a 24 well plate. Sesamin complex (S1) (at the concentrations indicated in the legend of FIG. 5) was dissolved in (DMSO) such that the final concentration of DMSO in the culture medium was maintained at 0.05%. Sesamin complex and Phenylthiourea (PTU) was added to the cells in triplicate and incubated for 2 days following which the cells were again treated with compounds supplemented with fresh medium. PTU at a concentration of 60 ug/ml was used as a positive inhibitor control in the melanin inhibition assay. Two days later, melanin was extracted and quantitated by normalizing with the protein content. After 4 days, melanin was extracted and cleared of the cell debris from each of the wells were dissolved by treating with 2N NaOH in 20% DMSO and incubating the samples for 60 min at 55° C. The melanin content in each sample was determined by measuring absorbance at 490 nm. Data were presented as % melanin content normalized to protein content in untreated wells compared to % melanin content extracted from samples.

## c1cc2c(cc1[C@H]1OC[C@H]3[C@@H]1CO[C@@H]3c1ccc3c(c1)OCO3)OCO2 [sesamin]
[1]; 50 ug/mL, second highest response
  anti-oxidant response (% Response): activation of anti-oxidant pathways
[1]; 100 ug/mL
  anti-oxidant response (% Response): highest anti-oxidant response
[1]; HepG2 ARE-luciferase cells, 6.75-100 ug/mL
  anti-oxidant response (% Response, luciferase RLU normalized to untreated 0% and sulforophane 100%): dose-dependent anti-oxidant response
[2]; sesamin at 70% (μg/mL)
  activation of PPARγ (percent of control response): dose-dependent activation of PPARγ
[2]; sesamin at 90% (μg/mL)
  activation of PPARγ (percent of control response): dose-dependent activation of PPARγ
Melan-a cells
  melanin inhibition (% melanin content normalized to protein content): dose dependent melanin inhibition
